Each structure is given as a SMILES string.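 Cells were grown in 96-well plates and exposed to each compound for 48 hours at five concentrations; endpoints were interpolated linearly between bracketing concentrations, or set to the highest concentration if not reached. GI50 is the concentration that inhibits growth by half. The concentration for full growth arrest is given as TGI.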

One experiment has as its system ACHN renal. The experiment is described as follows: NCI tumour cell line growth inhibition, 48 h.
For the molecule `O=C(O)c1ccccc1[Se][Se]c1ccccc1C(=O)O`, the TGI was greater than 100 µM.

In the case of `CC(C)=CC(=O)C1c2cccc(O)c2C(=O)c2c(O)cc(C)cc21` (stereo unspecified), the TGI turned out to be 4.77 µM.

Regarding `O=C(O)CCc1coc2ccc(O)cc12`, the TGI is greater than 100 µM.

`O=C(Nc1ccccc1)NS(=O)(=O)c1ccc(-n2nc3c(c2-c2cccs2)Cc2ccccc2-3)cc1`: the GI50 was 17.6 µM and the TGI turned out to be 38 µM.

In turn, `Cc1ccc(N=Nc2ccc(N(CCC#N)CCC#N)cc2C)c(Br)c1` returned a TGI greater than 100 µM.

Take `O=CC[C@H]1C(=O)C[C@@H]2CCC[C@@H]21`: the TGI is greater than 100 µM.

`O=C(N/C(=C\c1ccc(/C=C(\NC(=O)c2ccccc2)c2nc3cc([N+](=O)[O-])ccc3[nH]2)cc1)c1nc2cc([N+](=O)[O-])ccc2[nH]1)c1ccccc1` gave a TGI greater than 100 µM.

`COC1(OC)CCC2C1C1CCC(OC)(OC)C21` (stereo unspecified): the TGI is greater than 50 µM.

As for `C=C(CN1CCN(c2ccc(Cl)cc2F)CC1)c1ccc(C(=O)Nc2ccccc2N)cc1`, the GI50 was 4.02 µM and the TGI was greater than 100 µM.

`CCCCC(=O)OCC(=O)[C@]1(O)Cc2c(O)c3c(c(O)c2[C@@H](OC2CC(NC(=O)C(F)(F)F)C(O)C(C)O2)C1)C(=O)c1c(OC)cccc1C3=O` (stereo partly specified): the TGI amounted to 3.04 µM.

`C/C(CC(=O)CCC(=O)Nc1cccc(C(F)(F)F)c1)=N\NC(=O)NN` came in with a TGI greater than 100 µM.

For the molecule `CCN(CCO)CC1CCCC2CCCCC21` (stereo unspecified), the TGI was greater than 100 µM.

In the case of `COc1ccccc1C12OC(=O)C1(C)Oc1ccccc1C2=O` (stereo unspecified), the TGI is greater than 100 µM.

The molecule `O=C1C=C(Cl)C(=O)C(c2ccc(Cl)cc2)=C1` gave a TGI of 30.3 µM.

Regarding `CCCCOC(=O)C1OC(O[C@H]2CCC3(C)C(CCC4(C)C3CC=C3C5CC(C)(C)CCC5(C(=O)O)CC[C@]34C)C2(C)C)C(OC2OC(CO)C(O)C(O)C2O)C(OC2OC(CO)C(O)C(O)C2O)C1O` (stereo partly specified), the GI50 was 20.6 µM and the TGI worked out at 48.5 µM.

`Cn1cc(C2=C(c3cn(C)c4ncccc34)C(=O)NC2=O)c2ccccc21`: the GI50 is 7.03 µM and the TGI was greater than 25 µM.

Turning to `COc1cc(Cc2cnc(/N=C3\C(=O)N(CN4CCN(c5c(F)cc6c(=O)c(C(=O)O)cn(C7CC7)c6c5OC)CC4C)c4ccc(F)cc43)nc2N)cc(OC)c1OC` (stereo unspecified), the GI50 was 1.72 µM and the TGI was determined as 14.6 µM.

With `Clc1cc2nsnc2c(Cl)n1`, the TGI is greater than 100 µM.

For `COc1cc(/C=N/NC(=O)c2ccc(C(F)(F)F)nc2Nc2ccc(Cl)cc2C)ccc1O`, the GI50 is 3.06 µM and the TGI was 13.7 µM.

On to `COC1CCC2C(NS(=O)(=O)c3ccc(C)cc3)CCCC2O1` (stereo unspecified) (tested in a mixture with another compound), for which the TGI is greater than 34.5 µM.

`NNC(=O)Nc1cccnc1` returned a TGI greater than 100 µM.

`Cc1cc(C)nc(NS(=O)(=O)c2ccc(NC(=O)c3ccc(Cl)c4c(Nc5ccc(S(=O)(=O)Nc6nc(C)cc(C)n6)cc5)c5ccccc5nc34)cc2)n1` had a TGI greater than 100 µM.

For the molecule `O=S1(=O)c2ccccc2NC(c2ccc3ccccc3c2)CC1c1ccccc1F` (stereo unspecified), the TGI was greater than 100 µM.

For `CCCCCN(CCCCC)CCCNc1c2c(nc3ccc(Cl)cc13)CCCC2`, the GI50 is 3.48 µM and the TGI came to 11.6 µM.

For another experiment, the system named is CCRF-CEM leukemia. Nature of the experiment: NCI tumour cell line growth inhibition, 48 h.
`O=C(O)c1ccccc1[Se][Se]c1ccccc1C(=O)O`: the TGI is greater than 100 µM.

Consider `CC(C)=CC(=O)C1c2cccc(O)c2C(=O)c2c(O)cc(C)cc21` (stereo unspecified), for which the TGI was greater than 100 µM.

Take `O=C(O)CCc1coc2ccc(O)cc12`: the TGI was greater than 100 µM.

On to `O=C(Nc1ccccc1)NS(=O)(=O)c1ccc(-n2nc3c(c2-c2cccs2)Cc2ccccc2-3)cc1`, for which the GI50 was 13.6 µM and the TGI was greater than 100 µM.

In turn, `Cc1ccc(N=Nc2ccc(N(CCC#N)CCC#N)cc2C)c(Br)c1` had a TGI greater than 100 µM.

Turning to `O=CC[C@H]1C(=O)C[C@@H]2CCC[C@@H]21`, the TGI was greater than 100 µM.

On to `O=C(N/C(=C\c1ccc(/C=C(\NC(=O)c2ccccc2)c2nc3cc([N+](=O)[O-])ccc3[nH]2)cc1)c1nc2cc([N+](=O)[O-])ccc2[nH]1)c1ccccc1`, for which the TGI was greater than 100 µM.

`COC1(OC)CCC2C1C1CCC(OC)(OC)C21` (stereo unspecified) returned a TGI greater than 50 µM.

In the case of `C=C(CN1CCN(c2ccc(Cl)cc2F)CC1)c1ccc(C(=O)Nc2ccccc2N)cc1`, the GI50 is 0.524 µM and the TGI was greater than 100 µM.

Take `COc1cc2c(cc1OC)-c1c3cc(O)ccc3nn[n+]1CC2`: the TGI is greater than 100 µM.

Molecule `CCCCC(=O)OCC(=O)[C@]1(O)Cc2c(O)c3c(c(O)c2[C@@H](OC2CC(NC(=O)C(F)(F)F)C(O)C(C)O2)C1)C(=O)c1c(OC)cccc1C3=O` (stereo partly specified) registered a TGI greater than 73.6 µM.

With `C/C(CC(=O)CCC(=O)Nc1cccc(C(F)(F)F)c1)=N\NC(=O)NN`, the TGI was greater than 100 µM.

Take `COc1ccccc1C12OC(=O)C1(C)Oc1ccccc1C2=O` (stereo unspecified): the TGI was greater than 100 µM.

For `O=C1C=C(Cl)C(=O)C(c2ccc(Cl)cc2)=C1`, the TGI was 15.9 µM.

Regarding `Cn1cc(C2=C(c3cn(C)c4ncccc34)C(=O)NC2=O)c2ccccc21`, the GI50 is 8.41 µM and the TGI is greater than 22.9 µM.

Regarding `COc1cc(Cc2cnc(/N=C3\C(=O)N(CN4CCN(c5c(F)cc6c(=O)c(C(=O)O)cn(C7CC7)c6c5OC)CC4C)c4ccc(F)cc43)nc2N)cc(OC)c1OC` (stereo unspecified), the GI50 is 1.3 µM and the TGI stood at 4.26 µM.

On to `Clc1cc2nsnc2c(Cl)n1`, for which the TGI was found to be 27.1 µM.

Consider `COc1cc(/C=N/NC(=O)c2ccc(C(F)(F)F)nc2Nc2ccc(Cl)cc2C)ccc1O`, for which the GI50 was 0.416 µM and the TGI stood at 3.12 µM.

`COC1CCC2C(NS(=O)(=O)c3ccc(C)cc3)CCCC2O1` (stereo unspecified) (tested in a mixture with another compound) had a TGI greater than 34.5 µM.

In turn, `NNC(=O)Nc1cccnc1` registered a TGI greater than 100 µM.

`Cc1cc(C)nc(NS(=O)(=O)c2ccc(NC(=O)c3ccc(Cl)c4c(Nc5ccc(S(=O)(=O)Nc6nc(C)cc(C)n6)cc5)c5ccccc5nc34)cc2)n1` displayed a TGI greater than 100 µM.

For `O=S1(=O)c2ccccc2NC(c2ccc3ccccc3c2)CC1c1ccccc1F` (stereo unspecified), the TGI is greater than 100 µM.

A further experiment has as its system HCC-2998 colon. The experiment is described as follows: NCI tumour cell line growth inhibition, 48 h.
Molecule `O=C(O)c1ccccc1[Se][Se]c1ccccc1C(=O)O` came in with a TGI greater than 100 µM.

Regarding `CC(C)=CC(=O)C1c2cccc(O)c2C(=O)c2c(O)cc(C)cc21` (stereo unspecified), the TGI was 5.67 µM.

Molecule `O=C(O)CCc1coc2ccc(O)cc12` came in with a TGI greater than 100 µM.

Consider `O=C(Nc1ccccc1)NS(=O)(=O)c1ccc(-n2nc3c(c2-c2cccs2)Cc2ccccc2-3)cc1`, for which the GI50 was 15.3 µM and the TGI turned out to be 31.8 µM.

The molecule `Cc1ccc(N=Nc2ccc(N(CCC#N)CCC#N)cc2C)c(Br)c1` had a TGI of 59.4 µM.

Regarding `O=CC[C@H]1C(=O)C[C@@H]2CCC[C@@H]21`, the TGI was greater than 100 µM.

`O=C(N/C(=C\c1ccc(/C=C(\NC(=O)c2ccccc2)c2nc3cc([N+](=O)[O-])ccc3[nH]2)cc1)c1nc2cc([N+](=O)[O-])ccc2[nH]1)c1ccccc1`: the TGI was 77.2 µM.

The values are drawn from PubChem BioAssay (NCI).
